Test results taken from patent US4124578A, “Antiovulatory polypeptides” (American Home Products Corporation, priority 1978, dated 1978).
Non-standard residues stand in square brackets, D forms with d. Residues, ends and D or L forms follow the SMILES beside them. pGlu = O=C1CC[C@@H](C(=O)O)N1

Columns and labels:
[1] = system: Follicle stimulating hormone (FSH) release; details: in vivo, rat; cited from earlier work
[2] = system: luteinizing hormone (LH) release; details: in vivo, rat; cited from earlier work
[3] = system: spontaneous ovulation; assay: Inhibition of spontaneous ovulation in female rats; type: in vivo, rat; details: subcutaneous injections in oil on afternoon of proestrus, adult female rats; for Number of Ovulating Rats: ovulating/total
Procedure: (§1) The rats are sacrificed the next morning (estrus), and the number of animals ovulating and the number of ova identified under a disecting microscope are recorded. The absence of, or a significant decrease in, the number of ova is the criterion for an anti-ovulary effect.

[4] = CNS depression noted during the anti-ovulatory test; type: in vivo, rat; details: at the anti-ovulatory dose (6 mg., subcutaneous in oil), female rats
Procedure: as §1

Row | Compound | release of luteinizing hormone (LH) [2] | % Inhibition of Ovulation ([3]; Dose 6 mg.) [%] | Number of Ovulating Rats ([3]; Dose 6 mg.) | also measured
1 | [pGlu]YRW-NH2 | release luteinizing hormone (LH) | – | – | Follicle stimulating hormone (FSH) release [1]: unaffected
2 | CC(C)C[C@H](NC(=O)[C@@H](C)NC(=O)CNC(=O)[C@H](Cc1c[nH]c2ccccc12)NC(=O)[C@H](CCCNC(=N)N)NC(=O)[C@H](Cc1ccc(O)cc1)NC(=O)[C@@H]1CCC(=O)N1)C(=O)N[C@@H](CCCNC(=N)N)C(=O)N1CCC[C@H]1C(N)=O [Example 7, L-(5-Oxoprolyl)-L-tyrosyl-L-arginyl-L-tryptophylglycyl-D-alanyl-L-leucyl-L-arginyl-L-prolyl amide] (HELM PEPTIDE1{[Glp].Y.R.W.G.[dA].L.R.P.[am]}$$$$V2.0) | – | – | – | % Inhibition of Ovulation ([3]; Dose 0.5 mg.): 50%; Number of Ovulating Rats ([3]; Dose 0.5 mg.): 3/6
3 | [pGlu]YRWGHL-NH2 | release LH | – | – | –
4 | CCNC(=O)[C@@H]1CCCN1C(=O)[C@H](CCCNC(=N)N)NC(=O)[C@@H](CC(C)C)NC(=O)C(C)(C)NC(=O)CNC(=O)[C@@H](Cc1c[nH]c2ccccc12)NC(=O)[C@H](CCCNC(=N)N)NC(=O)[C@H](Cc1ccc(O)cc1)NC(=O)[C@@H]1CCC(=O)N1 [Example 3, L-(5-Oxoprolyl)-L-tyrosyl-L-arginyl-D-tryptophylglycyl-(2-methylalanyl)-D-leucyl-L-arginyl-N-ethyl-L-prolinamide] (HELM PEPTIDE1{[Glp].Y.R.[dW].G.[Aib].[dL].R.P.[CCN[*:1]]}$$$$V2.0) | – | – | – | CNS depression [4]: CNS depression is noted at the anti-ovulatory dose
5 | CCNC(=O)[C@@H]1CCCN1C(=O)[C@H](Cc1c[nH]c2ccccc12)NC(=O)[C@H](CCCNC(=N)N)NC(=O)[C@H](Cc1ccc(O)cc1)NC(=O)[C@@H]1CCC(=O)N1 [Example 9, L-(5-Oxoprolyl)-L-tyrosyl-L-arginyl-L-tryptophyl-N-ethyl-2-prolin amide] (HELM PEPTIDE1{[Glp].Y.R.W.P.[CCN[*:1]]}$$$$V2.0) | – | 50 | 2/4 | –
6 | CCNC(=O)[C@@H]1CCCN1C(=O)[C@H](CCCNC(=N)N)NC(=O)[C@H](CC(C)C)NC(=O)[C@@H](C)NC(=O)CNC(=O)[C@H](Cc1c[nH]c2ccccc12)NC(=O)[C@H](CCCNC(=N)N)NC(=O)[C@H](Cc1ccc(O)cc1)NC(=O)[C@@H]1CCC(=O)N1 [Example 5, L-(5-Oxoprolyl)-L-tyrosyl-L-arginyl-L-tryptophylglycyl-D-alanyl-L-leucyl-L-arginyl-N-ethyl-L-prolinamide] (HELM PEPTIDE1{[Glp].Y.R.W.G.[dA].L.R.P.[CCN[*:1]]}$$$$V2.0) | – | 60 | 2/5 | –
